Test results: article PMC7048302, “Deep Learning-driven research for drug discovery: Tackling Malaria” (PLoS Computational Biology, 2020)
“Also recorded” adds a separate entry of the source. Read-outs that look alike come from different tables or passages of the source.

What was measured:
[1] = test system: P. falciparum 3D7 strain (chloroquine sensitive); conditions: S3 File, continuous QSAR dataset; ref ChEMBL CHEMBL2366922 [25]; cited from earlier work
[2] = test system: mouse embryonic fibroblasts (NIH/3T3 cell line); conditions: S4 File, continuous QSAR dataset; ref ChEMBL CHEMBL614822 [25]; cited from earlier work
P. falciparum W2 strain = assay: Antiplasmodial assay (SYBR Green), multi-drug-resistant strain; type: cell-based, Plasmodium falciparum; conditions: for EC50: Plasmodium falciparum, read-out: EC50 (PfW2); for SI^b: Selectivity index calculated by COS7 CC50/W2 EC50
Description: (§1) The 3D7 and W2 strains were cultured in RPMI 1640 medium supplemented with 0.05 mg/mL gentamycin, 38.4 mM HEPES, 0.2% sodium bicarbonate, and 10% O^+ human serum, as previously described in standardized protocol. Then, erythrocytes were added to the culture to obtain a 5% of hematocrit, and incubated at 37°C under 5% CO2 atmosphere, with daily exchange of medium. The parasitemia was monitored daily in smears, stained with Giemsa. Synchronic cultures in ring stage were obtained by two consecutive treatments, at 48h intervals with a 5% solution of D-sorbitol.
(§2) Parasites synchronized at the ring stage, with 0.5% parasitemia and 2% hematocrit, were distributed in the wells of a 96-well plate. The compounds were tested in triplicates using 12-point dilution series (0.019 μM– 40 μM) over 72h. Chloroquine and pyrimethamine were used as positive controls. The in vitro susceptibility of parasite to tested drugs was measured by SYBR Green according to Hartwig and colleagues. Briefly, 100 μL of lysis buffer (20 mM Tris, 5 mM EDTA, 0,008% wt/vol saponin, 0,08% vol/vol Triton X-100 and 0.4 μL/mL of SYBR Green) were added in each well of a new black 96-well plate and 100 μL of parasite culture incubated with drugs were transferred. After homogenization, the plates were incubated for 1h in the dark. Fluorescence was measured at 490 nm excitation and 540 nm emission (CLARIOstar, Labtech BMG).
(§3) The EC50 and CC50 values were calculated by plotting the Log doses vs. inhibition (expressed as a percentage relative to the control) in GraphPad Prism v.6 (GraphPad Software, La Jolla California USA, www.graphpad.com).

P. falciparum 3D7 strain = assay: Antiplasmodial assay (SYBR Green), sensitive strain; type: cell-based, Plasmodium falciparum; conditions: for EC50: Plasmodium falciparum; for antiplasmodial activity (concentration range in words): asexual blood stages, 3D7 and W2 strains; for SI^a: Selectivity index calculated by COS7 CC50/3D7 EC50
Description: as §1, §2, §3

[3] = Cytotoxicity assay (MTT reduction); type: cell-based, monkey; conditions: monkey, COS-7 cells (fibroblast-like monkey kidney cell line); 72 hours, mean ± SD of three independent assays
Description: (§4) Cytotoxicity assays used fibroblast-like cell lines derived from monkey kidney tissue (COS7 cells), grown in DMEM medium supplemented with 10% fetal bovine serum and 0.05 mg/mL gentamicin in atmosphere containing 5% CO2 at 37°C. […] After an incubation period (72 hours), cell viability analysis was performed via the MMT reduction method (3- [4,5- dimethyl-thiazol-2-yl] -2,5-diphenyltetrazolium […]).
as §3

COS-7 cells = assay: Cytotoxicity assay (MTT reduction); type: cell-based, monkey; conditions: in words
Description: as §4, §3

[4] = W2, asexual blood stage, 72h, mean ± SD of three independent assays
[5] = 3D7, asexual blood stage, 72h, mean ± SD of three independent assays, read-out: EC50 (Pf3D7)
[6] = 3D7, asexual blood stages of sensitive and multi-drug-resistant strains, read-out: EC50

SMILES	pEC50 [1]	EC50 (P. falciparum W2 strain; [4]) [nM]	EC50 (P. falciparum 3D7 strain; [5]) [nM]	CC50 at 72 h [3] [nM]	SI^b (P. falciparum W2 strain)	also measured
Cc1ccc(-c2ccc(-c3ccc(C(=N)N)cc3)o2)cc1	10.24					
CC1CCC2C(C)C(O)OC3OC4(C)CCC1C32OO4 (centres unmarked)	10.00					
COc1ccc(-c2ccc(-c3ccc(C(=N)N)cc3)o2)cc1	9.86					
Cn1cncc1C(O)C1=Cc2cccnc2C(N2CCN(C(=O)NC(C)(C)C)CC2)c2ccc(Cl)cc21 (centres unmarked)						pCC50 [2]: 9.30
Cn1cncc1C(OCc1ccc(C#N)cc1C#Cc1ccccc1)c1ccc(C#N)cc1 (centres unmarked)						pCC50 [2]: 10.00
N=C(N)c1ccc(-c2ccc(-c3ccc(F)cc3)o2)cc1	11.02					
CCN(CC)CCCC(C)Nc1ccnc2cc(Cl)ccc12 (centres unmarked) [Chloroquine, chloroquine, reference compound]						EC50 (P. falciparum W2 strain; W2, 72 h): 173 ± 20 nM; EC50 (P. falciparum 3D7 strain; 3D7, 72 h, read-out: EC50 (Pf3D7)): 11 ± 1 nM
CC1(C)NC(C2=NOC(C)(C)N2)=NO1 [LabMol-148]		> 40000	> 40000	> 200000		
Oc1ccccc1C1N=C(c2ccccc2)N=C(c2ccccc2)N1 (centres unmarked) [LabMol-149, 2-(4,6-diphenyl-1,2-dihydro-1,3,5-triazin-2-yl)phenol]		509 ± 177	1450 ± 524	> 100000	>196	EC50 (P. falciparum 3D7 strain; [6]): < 500 nM; antiplasmodial activity (concentration range in words) (P. falciparum 3D7 strain): submicromolar and low nanomolar range; also recorded: activity at submicromolar concentrations; cytotoxicity in mammalian cells (COS-7 cells): low cytotoxicity
Nc1cc(N)nc(N2CCOCC2)n1 [LabMol-150]		> 40000	> 40000	> 200000		
CC(=O)N(C1=C(N2CCOCC2)C(=O)c2ccccc2C1=O)c1ccc(C(=O)O)cc1 [LabMol-151, 4-{N-[3-(morpholin-4-yl)-1,4-dioxo-1,4-dihydronaphthalen-2-yl]acetamido}benzoic acid]		1620 ± 321	1910 ± 292	141000 ± 11200	87.1	SI^a (P. falciparum 3D7 strain): 73.7; antiplasmodial activity (concentration range in words) (P. falciparum 3D7 strain): submicromolar and low nanomolar range; also recorded: activity at submicromolar concentrations; cytotoxicity in mammalian cells (COS-7 cells): low cytotoxicity
Fc1cccc(Nc2nc(NCC3CCCO3)c3ccccc3n2)c1 (centres unmarked) [LabMol-152, N2-(3-fluorophenyl)-N4-[(oxolan-2-yl)methyl]quinazoline-2,4-diamine]		78 ± 14	49 ± 29	16700 ± 10300	214.1	EC50 (P. falciparum 3D7 strain; [6]): < 500 nM; SI^a (P. falciparum 3D7 strain): 340.8; antiplasmodial activity (concentration range in words) (P. falciparum 3D7 strain): submicromolar and low nanomolar range; cytotoxicity in mammalian cells (COS-7 cells): low cytotoxicity
CCc1nc(N)nc(N)c1-c1ccc(Cl)cc1 [Pyrimethamine, pyrimethamine, reference compound]		18200 ± 4540	37 ± 7	> 100000	5.5	SI^a (P. falciparum 3D7 strain): 2,702
